Source: paper PMC6895180 (Nature Communications, 2019)
“And” between values parts separate entries of the source, which are not always exact repeats. Identical values can stand only once. Like-named read-outs stand apart in the source and are kept apart here. Marks after values point to notes of the source that are not given here.

What was measured:
P1 transporter = assay type: cell-based, Trypanosoma brucei; conditions: mean ± SEM, n = 3
Procedure: Non-specific association of radiolabel with the cell pellet was determined using an identical incubation in the presence of saturating (1 mM) unlabelled adenosine.

[1] = system: B48: pentamidine, diminazene and melaminophenyl arsenical resistant T. brucei line; assay: microbe, parasite or virus in culture; assay type: cell-based, Trypanosoma brucei brucei
[2] = system: T. b. rhodesiense STIB-900; assay: microbe, parasite or virus in culture; assay type: cell-based, Trypanosoma brucei rhodesiense; conditions: Trypanosoma brucei, RHODESIENSE
Procedure: (§1) Drug susceptibility tests with Lister 427WT, TbAT1-KO[48], B48[26] and ISMR1[27] were performed using an assay based on the viability indicator dye resazurin in 96-well plates, each well containing 2 × 10^4 cells. The plates were incubated for 48 h with a doubling dilution series of the test compounds in HMI-9/fetal bovine serum at 37 °C/5% CO2 (23 dilutions starting at 100 µM, except for the pentamidine control (50 µM)), after which resazurin (20 µL of 125 µg mL^−1 resazurin sodium salt solution was added to each well (containing 200 µL of cells and test compound)) was added to each well and the plates incubated for another 24 h. Fluorescence was determined using a FLUOstar Optima (BMG Labtech, Durham, NC) and the results fitted to a sigmoid curve with variable slope using Prism 5.0 or Prism 7.04 (GraphPad, San Diego, CA).
(§2) Susceptibility assays with T. brucei Squib 427[49] or T. b. rhodesiense STIB-900[50] were performed under similar conditions as above, but using 10 concentrations of a 4-fold compound dilution series starting at 64 µM. Trypanosoma brucei Squib 427 was seeded at 1.5 × 10^4 parasites/well and T. b. rhodesiense at 4 × 10^3 parasites per well, followed by the addition of resazurin (final concentration of 10 µg mL^−1) after 24 h (T. brucei) or 6 h (T. b. rhodesiense).

T. brucei Squib 427 = assay: microbe, parasite or virus in culture; assay type: cell-based, Trypanosoma brucei brucei
Procedure: as §1, §2

[3] = system: T. b. brucei Lister 427WT; assay: Drug susceptibility test (resazurin), Lister 427WT; assay type: cell-based, Trypanosoma brucei brucei
Procedure: as §1

[4] = Cytotoxicity on MRC-5 fibroblasts (resazurin); assay type: cell-based, human; conditions: human, MRC-5SV2 human embryonic lung fibroblasts
Procedure: Cytotoxicity assays were performed on MRC-5SV2 (Sigma-Aldrich/ECACC, catalogue number 84100401) human embryonic lung fibroblasts, which were cultured in minimum essential medium with Earle’s salt medium, supplemented with L-glutamine, NaHCO3 and 5% inactivated foetal calf serum. All cultures and assays were conducted at 37 °C with 5% CO2. Ten microliters of the aqueous compound dilutions were added to 190 µL of MRC-5SV2 (3 × 10^4 cells mL^−1). Cell growth was compared to untreated control wells (100% cell growth) and medium control wells (0% cell growth). After a 3-day incubation, cell viability was assessed fluorimetrically after the addition of 50 μL resazurin per well (final concentration of 10 µg mL^−1). After 4 h at 37 °C, fluorescence was measured (λex 550 nm, λem 590 nm). The results were expressed as percentage reduction in cell growth/viability compared to control wells and an EC50 was determined.

[5] = system: ISMR1: isometamidium-resistant T. brucei cell line; assay: microbe, parasite or virus in culture; assay type: cell-based, Trypanosoma brucei brucei
Procedure: as §1

[6] = system: TbAT1-KO: T. brucei cell line lacking the TbAT1(P2) transporter gene; assay: microbe, parasite or virus in culture; assay type: cell-based, Trypanosoma brucei brucei
Procedure: as §1

[7] = Metabolic stability, pooled human liver microsomes (phase I and II)
Procedure: (§3) Mouse, rat, and pooled human liver microsomes were purchased from a commercial source (Corning) and stored at -80 °C. NADPH generating system solutions A and B and UGT reaction mix solutions A and B (Corning) were kept at -20°C. The test compound and the reference compounds diclofenac (MW […]
(§4) microsomal stability assay was carried out based on the BD Biosciences Guidelines for Use (TF000017 Rev1.0) with minor adaptations. Metabolic stability of the compounds was studied through the CYP450 superfamily (phase I metabolism) by fortification with reduced nicotinamide adenine dinucleotide phosphate (NADPH) and through uridine glucuronosyl-transferase (UGT) enzymes (phase II metabolism) by fortification with uridine diphosphate glucuronic acid (UDPGA). For the CYP450 and other NADPH dependent enzymes, both compounds were incubated at 5 µM together with 0.5 mg mL-1 liver microsomes in potassium phosphate buffer in a reaction started by the addition of 1 mM NADPH […]
(§5) At these time points, 20 µL was withdrawn from the reaction mixture and 80 µL cold acetonitrile (ACN) containing the internal standard tolbutamide, was added to inactivate the enzymes and precipitate the proteins. The mixture was vortexed for 30 s and centrifuged at 4 °C for 5 min at 15,000 rpm. The supernatant was stored at -80°C until analysis. For the UGT enzymes, both compounds were incubated at 5 µM together with 0.5 mg mL-1 liver microsomes in a reaction started by the addition of 2 mM UDPGA cofactor. The corresponding loss of parent compound was determined using liquid chromatography (UPLC) (Waters AquityTM) coupled with tandem quadrupole mass spectrometry (MS²) (Waters XevoTM), equipped with an electrospray ionization (ESI) interface and operated in multiple reaction monitoring (MRM) mode. […]

[8] = Metabolic stability, mouse liver microsomes (phase I and II)
Procedure: as §3, §4, §5

[9] = Metabolic stability, rat liver microsomes (phase I and II)
Procedure: as §3, §4, §5

T. brucei ADKIN = target: T1, T. brucei ADKIN (Trypanosoma brucei brucei, UniProt Q584S6); assay: ADKIN assay (phosphorylation by purified recombinant enzyme, HPLC); assay type: biochemical
T1 sequence (Q584S6 1-345): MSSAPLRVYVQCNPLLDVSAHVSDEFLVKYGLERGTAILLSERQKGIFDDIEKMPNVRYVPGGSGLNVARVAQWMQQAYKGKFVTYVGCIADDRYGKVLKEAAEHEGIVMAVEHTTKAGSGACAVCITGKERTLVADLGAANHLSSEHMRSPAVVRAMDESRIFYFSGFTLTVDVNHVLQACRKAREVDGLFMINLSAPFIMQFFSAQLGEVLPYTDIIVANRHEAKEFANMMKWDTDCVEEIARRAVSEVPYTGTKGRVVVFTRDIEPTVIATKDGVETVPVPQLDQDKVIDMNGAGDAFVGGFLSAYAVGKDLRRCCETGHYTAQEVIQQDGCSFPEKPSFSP
Procedure: The T. brucei ADKIN enzyme was diluted in a buffer containing 0.05% (v/v) Tween-20, 50 mM KCl, 0.1 mM dithiothreitol, and 50 mM Tris-HCl, pH 7.5 (dilution buffer), prior to use in the assay. The final assay mixture contained 12.5 ng T. brucei ADKIN, a range between 50 and 1000 µM of nucleoside 9 (or 1000 µM deoxyadenosine in the control reaction), 100 mM KCl, 10 mM MgCl2, 0.5 mM ATP, 5 mM potassium phosphate and 50 mM Tris-HCl, pH 7.5. The assay was incubated at 37 °C for 30 min, and subsequently heated for 2 min at 100 °C to inactivate the enzyme, diluted with 2 volumes of water, centrifuged through a Nanosep 3k Omega filter and mixed 1:1:2 with water and mobile phase. The HPLC analysis was performed on a 2.1 × 150 mm ACE Excel C18 column using a mobile phase composition 4A:76B:20C (see nucleotide pool analysis, Supplementary Information for details). Using these conditions, consecutive samples could be loaded (Supplementary Fig. 12). After 4–5 samples, the column was washed with high percent A (80A:20C) to remove bound ADP and ATP before re-equilibrating the column to original conditions.

[10] = resistance factor vs Lister 427WT

Nc1ncnc2c1ncn2[C@@H]1O[C@H](CO)[C@@H](O)[C@H]1O [Adenosine, reference compound]
Km (P1 transporter): 0.12 ± 0.02 µM

Nc1ncnc2c1ccn2[C@H]1C[C@H](O)[C@@H](CO)O1 [Compound 11, 2′-Deoxy-TUB]
EC50 ([1]; Trypanosoma brucei, mean and SEM, n = 3, read-out: B48 EC50): 41.8 ± 1.4 µM | EC50 ([1]; Trypanosoma brucei, source data, read-out: B48 EC50, single determinations): 40.3 µM | RF (B48) [1, 10]: 0.43** | EC50 ([1]; source data, read-out: B48 EC50, single determinations): 43.2 µM and 40.8 µM | EC50 ([2]; Alamar blue cell viability assay, mean and SEM, read-out: T. b. rhodesiense EC50): > 64 µM | EC50 ([2]; source data, read-out: T. brucei rhodesiense EC50, single measurements): > 64 µM | EC50 (T. brucei Squib 427; Trypanosoma brucei, Alamar blue cell viability assay, mean and SEM, read-out: T. b. brucei EC50): 48 ± 1 µM | EC50 (T. brucei Squib 427; Trypanosoma brucei, source data, read-out: T. brucei brucei EC50, Average): 48.5 µM | EC50 (T. brucei Squib 427; Trypanosoma brucei, source data, read-out: T. brucei brucei EC50, single measurements): 49.9 µM | SI (MRC/T.b. brucei) (T. brucei Squib 427; selectivity index): 1.3 | EC50 (T. brucei Squib 427; source data, read-out: T. brucei brucei EC50, single measurements): 47.2 µM | EC50 ([3]; Trypanosoma brucei, mean and SEM, n = 3, read-out: Lister 427 EC50): 96.4 ± 13.8 µM | EC50 ([3]; Trypanosoma brucei, source data, read-out: s427 EC50, single determinations): 82.6 µM | EC50 ([3]; source data, read-out: s427 EC50, single determinations): 97.4 µM | EC50 at 3 day ([4]; cytotoxicity in human MRC-5 fibroblasts, mean and SEM, read-out: MRC-5 EC50): > 64 µM | EC50 at 3 day ([4]; source data, read-out: MRC-5 EC50, single measurements): > 64 µM | EC50 ([5]; Trypanosoma brucei, mean and SEM, n = 3, read-out: ISMR1 EC50): 77.8 ± 1.7 µM | EC50 ([5]; Trypanosoma brucei, source data, read-out: ISMR1 EC50, single determinations): 77.3 µM | RF (ISMR1) [5, 10]: 0.81 | EC50 ([5]; source data, read-out: ISMR1 EC50, single determinations): 81 µM and 75.1 µM | EC50 ([6]; Trypanosoma brucei, read-out: TbAT1-KO EC50, mean and SEM, n = 3): 43.7 ± 2.2 µM | EC50 ([6]; Trypanosoma brucei, read-out: TbAT1-KO EC50, single determinations, source data): 41.5 µM | EC50 ([6]; read-out: TbAT1-KO EC50, single determinations, source data): 45.9 µM and 46.9 µM | RF (TbAT1-KO) ([6]; resistance factor: ratio of EC50 of resistant and Lister 427WT): 0.45**

OC(Cn1cncn1)(Cn1cncn1)c1ccc(F)cc1F [Fluco, fluconazole, reference compound]
% parent compound remaining ([7]; CYP - NADPH, 15 min): 110% | % parent compound remaining ([7]; CYP - NADPH, 30 min): 80% | % parent compound remaining ([7]; CYP - NADPH, 60 min): 103% | % parent compound remaining ([7]; UGT Enzymes, 15 min): 103% | % parent compound remaining ([7]; UGT Enzymes, 30 min): 116% | % parent compound remaining ([7]; UGT Enzymes, 60 min): 106% | % parent compound remaining ([8]; CYP - NADPH, 15 min): 111±12% | % parent compound remaining ([8]; CYP - NADPH, 30 min): 93±19% | % parent compound remaining ([8]; CYP - NADPH, 60 min): 100±12% | % parent compound remaining ([8]; UGT Enzymes, 15 min): 99±19% | % parent compound remaining ([8]; UGT Enzymes, 30 min): 104±3% | % parent compound remaining ([8]; UGT Enzymes, 60 min): 100±6% | % parent compound remaining ([9]; CYP - NADPH, 15 min): 110% | % parent compound remaining ([9]; CYP - NADPH, 30 min): 104% | % parent compound remaining ([9]; CYP - NADPH, 60 min): 96% | % parent compound remaining ([9]; UGT Enzymes, 15 min): 111% | % parent compound remaining ([9]; UGT Enzymes, 30 min): 105% | % parent compound remaining ([9]; UGT Enzymes, 60 min): 112%

Nc1ncnc2c1ncn2[C@H]1C[C@H](O)[C@@H](CO)O1 [dAdo, 2′-deoxyadenosine, reference compound]
product concentration (Conc.9-MP) (T. brucei ADKIN; TbAK control reaction, [dAdo] 1000 µM): 34.4568 and 29.4118 and 31.8858 | Act (U/mg) (T. brucei ADKIN; TbAK, substrate 1000 µM): 4.594 U/mg and 3.922 U/mg and 4.251 U/mg
